≈ marks a conversion by molar mass, not a printed value.
tested on: Bacillus subtilis ATCC 6633; test: Broth microdilution MIC/MBC; format: cell-based; settings: not given
Excerpt: Detailed procedures are presented in the Supplementary Materials. […]
(§1) In vitro antimicrobial activity assays - Methodology
(§2) The examined compounds 1 - 24 were screened in vitro for antibacterial and antifungal activities using the broth microdilution method according to procedure reported earlier by our research group and European Committee on Antimicrobial Susceptibility Testing (EUCAST) and Clinical and Laboratory Standards Institute (CLSI) guidelines against a panel of reference and clinical or saprophytic strains of microorganisms, in-cluding Gram-positive bacteria, Staphylococcus aureus ATCC 43300 (Methicillin Resistant S. aureus – MRSA), Staphylococcus aureus ATCC 29213 (Methicillin Susceptible S. aureus – MSSA), Staphylococcus epidermidis ATCC 12228, Enterococcus faecalis ATCC 29212, Micro-coccus luteus ATCC 10240, Bacillus subtilis ATCC 6633 and Bacillus cereus ATCC 10876), Gram-negative bacteria (Bordetella bronchiseptica ATCC 4617, Escherichia coli ATCC 25922, Klebsiella pneumoniae ATCC 13883, Proteus mirabilis ATCC 12453, Salmonella typhimurium ATCC 14028 and Pseudomonas aeruginosa ATCC 9027) and fungi belonging to yeasts (Can-dida albicans ATCC 10231, Candida albicans ATCC 2091, Candida parapsilosis ATCC 22019, Candida glabrata ATCC 90030 and Candida krusei ATCC 14243). The microorganisms be-longing to ATCC came from American Type Culture Collection, routinely used for the evaluation of antimicrobials. All the used microbial cultures were first subcultured on nu-trient agar or Sabouraud agar at 35°C for 18-24 h or 30°C for 24-48 h for bacteria and fungi, […]
(§3) The surface of Mueller-Hinton agar (for bacteria) and RPMI 1640 with MOPS (for fungi) were inoculated with the suspensions of bacterial or fungal species. Microbial suspensions were prepared in sterile saline with an optical density of McFarland standard scale 0.5.
(§4) Samples containing examined compounds were dissolved in dimethyl sulfoxide (DMSO).
(§5) Furthermore, bacterial and fungal suspensions were put onto Petri dishes with solid me-dia containing 2 mg/mL of the tested compounds followed incubation at 37°C for 24h and 30°C for 48h for bacteria and fungi, respectively. The inhibition of microbial growth was judged by comparison with a control culture prepared without any sample tested. Ciprof-loxacin, vancomycin, nitrofurantoin, cefuroxime, ampicillin or nystatin (Sigma) were used as a reference antibacterial or antifungal compounds, respectively.
(§6) Subsequently, the MIC (Minimal Inhibitory Concentration) of the compounds was ex-amined by the microdilution broth method, using their two-fold dilutions in Mueller- […]
(§7) Hinton broth or (for bacteria) and RPMI 1640 broth with MOPS (for fungi) prepared in 96-well polystyrene plates. Final concentrations of the compounds ranged from 1000 to 0.488 µg/ml. Microbial suspensions were prepared in 0.85% NaCl with an optical density of 0.5 McFarland standard. Next each bacterial or fungal suspension was added per each well containing broth and various concentrations of the examined compounds. After incuba-

Row | MBC/MIC | Compound
1 | > 2 | CCOc1ccc(/C=N/NC(=O)c2ccc(O)cc2O)cc1 [Compound 5, N-[(4-ethoxyphenyl)methylidene]-2,4-dihydroxybenzohydrazide]

same assay, conditions: ATCC6633

Row | Compound | MBC
2 | CCOc1ccc(/C=N/NC(=O)c2ccc(O)cc2O)cc1 [Compound 5, N-[(4-ethoxyphenyl)methylidene]-2,4-dihydroxybenzohydrazide] | > 1000 µg/mL

same assay, conditions: ATCC6633, read-out: MIC

Row | MIC | Compound
3 | 500 µg/mL (≈ 1.66 mM) | CCOc1ccc(/C=N/NC(=O)c2ccc(O)cc2O)cc1 [Compound 5, N-[(4-ethoxyphenyl)methylidene]-2,4-dihydroxybenzohydrazide]

tested on: Escherichia coli ATCC 25922; test: Broth microdilution MIC/MBC; format: cell-based; settings: ATCC25922
Excerpt: as §1, §2, §3, §4, §5, §6, §7

Row | MIC | Compound
4 | > 1000 µg/mL | CCOc1ccc(/C=N/NC(=O)c2ccc(O)cc2O)cc1 [Compound 5, N-[(4-ethoxyphenyl)methylidene]-2,4-dihydroxybenzohydrazide]

tested on: Enterococcus faecalis ATCC 29212; test: Broth microdilution MIC/MBC; format: cell-based; settings: not given
Excerpt: as §1, §2, §3, §4, §5, §6, §7

Row | MBC/MIC | Compound
5 | > 1 | CCOc1ccc(/C=N/NC(=O)c2ccc(O)cc2O)cc1 [Compound 5, N-[(4-ethoxyphenyl)methylidene]-2,4-dihydroxybenzohydrazide]

same assay, conditions: ATCC29212, read-out: MBC

Row | Compound | MBC
6 | CCOc1ccc(/C=N/NC(=O)c2ccc(O)cc2O)cc1 [Compound 5, N-[(4-ethoxyphenyl)methylidene]-2,4-dihydroxybenzohydrazide] | > 1000 µg/mL

same assay, conditions: ATCC29212, read-out: MIC

Row | MIC | Compound
7 | 1000 µg/mL (≈ 3.33 mM) | CCOc1ccc(/C=N/NC(=O)c2ccc(O)cc2O)cc1 [Compound 5, N-[(4-ethoxyphenyl)methylidene]-2,4-dihydroxybenzohydrazide]

tested on: Bacillus cereus ATCC 10876; test: Broth microdilution MIC/MBC; format: cell-based; settings: not given
Excerpt: as §1, §2, §3, §4, §5, §6, §7

Row | MBC/MIC | Compound
8 | > 2 | CCOc1ccc(/C=N/NC(=O)c2ccc(O)cc2O)cc1 [Compound 5, N-[(4-ethoxyphenyl)methylidene]-2,4-dihydroxybenzohydrazide]

same assay, conditions: ATCC10876

Row | Compound | MBC
9 | CCOc1ccc(/C=N/NC(=O)c2ccc(O)cc2O)cc1 [Compound 5, N-[(4-ethoxyphenyl)methylidene]-2,4-dihydroxybenzohydrazide] | > 1000 µg/mL

same assay, conditions: ATCC10876, read-out: MIC

Row | MIC | Compound
10 | 500 µg/mL (≈ 1.66 mM) | CCOc1ccc(/C=N/NC(=O)c2ccc(O)cc2O)cc1 [Compound 5, N-[(4-ethoxyphenyl)methylidene]-2,4-dihydroxybenzohydrazide]

tested on: Bordetella bronchiseptica ATCC 4617; test: Broth microdilution MIC/MBC; format: cell-based; settings: ATCC4617
Excerpt: as §1, §2, §3, §4, §5, §6, §7

Row | MIC | Compound
11 | > 1000 µg/mL | CCOc1ccc(/C=N/NC(=O)c2ccc(O)cc2O)cc1 [Compound 5, N-[(4-ethoxyphenyl)methylidene]-2,4-dihydroxybenzohydrazide]

tested on: Klebsiella pneumoniae ATCC 13883; test: Broth microdilution MIC/MBC; format: cell-based; settings: ATCC13883
Excerpt: as §1, §2, §3, §4, §5, §6, §7

Row | MIC | Compound
12 | > 1000 µg/mL | CCOc1ccc(/C=N/NC(=O)c2ccc(O)cc2O)cc1 [Compound 5, N-[(4-ethoxyphenyl)methylidene]-2,4-dihydroxybenzohydrazide]

tested on: Candida albicans ATCC 2091; test: Broth microdilution MIC/MFC; format: cell-based; settings: not given
Excerpt: as §1, §2, §3, §4, §5, §6, §7

Row | MFC/MIC | Compound
13 | > 2 | CCOc1ccc(/C=N/NC(=O)c2ccc(O)cc2O)cc1 [Compound 5, N-[(4-ethoxyphenyl)methylidene]-2,4-dihydroxybenzohydrazide]

same assay, conditions: ATCC2091, read-out: MFC

Row | Compound | MFC
14 | CCOc1ccc(/C=N/NC(=O)c2ccc(O)cc2O)cc1 [Compound 5, N-[(4-ethoxyphenyl)methylidene]-2,4-dihydroxybenzohydrazide] | > 1000 µg/mL

same assay, conditions: ATCC2091, read-out: MIC

Row | MIC | Compound
15 | 500 µg/mL (≈ 1.66 mM) | CCOc1ccc(/C=N/NC(=O)c2ccc(O)cc2O)cc1 [Compound 5, N-[(4-ethoxyphenyl)methylidene]-2,4-dihydroxybenzohydrazide]

tested on: Candida parapsilosis ATCC 22019; test: Broth microdilution MIC/MFC; format: cell-based; settings: Lodderomyces parapsilosis, ATCC22019, read-out: MIC
Excerpt: as §1, §2, §3, §4, §5, §6, §7

Row | MIC | Compound
16 | > 1000 µg/mL | CCOc1ccc(/C=N/NC(=O)c2ccc(O)cc2O)cc1 [Compound 5, N-[(4-ethoxyphenyl)methylidene]-2,4-dihydroxybenzohydrazide]

Source: publication PMC10743905, “Design, Synthesis, and In Vitro and In Vivo Bioactivity Studies of Hydrazide–Hydrazones of 2,4-Dihydroxybenzoic Acid” (International Journal of Molecular Sciences, 2023)
